Measurements from US12011444B2, “N-substituted indole derivatives as PGE2 receptor modulators” (Idorsia Pharmaceuticals Ltd, priority 2015, dated 2024).
pIC50: −log10 of the molar value.

Experiments:
[1] = target: PTGER2 (EP2) (Homo sapiens (Human), UniProt P43116); assay: hEP2 b-arrestin assay (PathHunter HEK 293 PTGER2 b-arrestin cells); format: cell-based; details: hEP2 b-arrestin assay (values without asterisk)
Text: (§1) The assay is using the PathHunter™ HEK 293 PTGER2 and PTGER4 b-arrestin cell lines from DiscoverX. The system is based on the Enzyme Fragment Complementation Technology. Two complementing fragments of the b-galactosidase enzyme are expressed within stably transfected cells. The larger portion of b-gal, termed EA for Enzyme Acceptor, is fused to the C-terminus of b-arrestin 2. The smaller fragment, termed ProLink™ tag, is fused to PTGER2 (EP2) or PTRGER4 (EP4) at the C-terminus. Upon activation, b-arrestin is recruited which forces the interaction of ProLink and EA, allowing complementation of the two fragments of b-gal and the formation of a functional enzyme which is capable of hydrolysing the substrate and generating a chemiluminescent signal.
(§2) 5000 cells per well of a 384 well plate (white with white bottom Greiner 781080) are seeded in 20 ul per well of GM. Plate is incubated at 37° C., 5% C02 for 24 hours.
Plate is pre-incubated 15 minutes at 37° C. Then five microliters of PGE2 (final conc. 5 μM) are transferred into the assay plate. Plate is incubated 120 minutes at 37° C.
(§3) Twelve μl of reagent are transferred to the assay plate and incubate for 1 hour at room temperature in the dark. Luminescence counts are read on a BMG Fluostar Optima reader according to manufacturer's instructions. For each compound concentration calculate of the percentage of activity compared to DMSO control value as average±STDEV. (each concentration is measured in duplicate)

[2] = target: PTRGER4 (EP4) (Homo sapiens (Human), UniProt P35408); assay: hEP4 b-arrestin assay (PathHunter HEK 293 PTGER4 b-arrestin cells); format: cell-based; details: hEP4 b-arrestin assay (values without asterisk)
Sequence of PTRGER4 (EP4) (P35408 whole entry, looked up): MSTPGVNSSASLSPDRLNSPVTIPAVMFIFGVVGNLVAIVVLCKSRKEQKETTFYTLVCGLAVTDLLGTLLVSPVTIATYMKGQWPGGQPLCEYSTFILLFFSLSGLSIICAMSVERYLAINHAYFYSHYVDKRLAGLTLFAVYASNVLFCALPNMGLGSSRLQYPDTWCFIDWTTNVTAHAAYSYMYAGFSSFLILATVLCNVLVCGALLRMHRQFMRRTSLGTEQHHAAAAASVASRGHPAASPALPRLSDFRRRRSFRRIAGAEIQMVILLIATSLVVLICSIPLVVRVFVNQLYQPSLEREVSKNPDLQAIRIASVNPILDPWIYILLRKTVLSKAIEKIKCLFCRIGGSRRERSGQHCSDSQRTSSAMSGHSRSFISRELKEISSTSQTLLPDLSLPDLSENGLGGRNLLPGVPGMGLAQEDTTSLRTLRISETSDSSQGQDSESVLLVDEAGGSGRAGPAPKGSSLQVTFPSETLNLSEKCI
Text: as §1, §2
Plate is pre-incubated 15 minutes at 37° C. Then five microliters of PGE2 (final conc. 20 nM) are transferred into the assay plate. Plate is incubated 120 minutes at 37° C.
as §3, with “average±STDEV.” for “average±STDEV. (each concentration is measured in duplicate)”

Sequence of PTGER2 (EP2) (P43116 whole entry, the tested form may be a part): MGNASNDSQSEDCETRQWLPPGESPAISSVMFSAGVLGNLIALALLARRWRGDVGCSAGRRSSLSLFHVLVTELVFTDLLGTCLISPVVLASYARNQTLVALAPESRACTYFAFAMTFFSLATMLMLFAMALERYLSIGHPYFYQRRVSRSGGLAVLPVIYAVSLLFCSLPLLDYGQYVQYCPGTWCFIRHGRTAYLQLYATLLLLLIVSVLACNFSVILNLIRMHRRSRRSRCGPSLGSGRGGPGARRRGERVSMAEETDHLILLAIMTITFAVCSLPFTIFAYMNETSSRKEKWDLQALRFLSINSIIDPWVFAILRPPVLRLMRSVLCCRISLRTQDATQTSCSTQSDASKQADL

| pIC50 [1] | pIC50 [2] | SMILES |
| --- | --- | --- |
| 7.89 | 8.10 | COc1cc(-c2cc(NCCn3c(C#N)cc4c(OC)ccc(F)c43)ncn2)sc1C1(O)COC1 [Example 826, 7-Fluoro-1-(2-{6-[5-(3-hydroxy-oxetan-3-yl)-4-methoxy-thiophen-2-yl]-pyrimidin-4-ylamino}-ethyl)-4-methoxy-1H-indole-2-carbonitrile] |
| 7.80 | 8.15 | COc1ccc(F)c2c1cc(C#N)n2CCNc1cc(-c2ccc(-c3cn(C)c(C4CC4)n3)cc2)ncn1 [Example 827, 1-(2-{6-[4-(2-Cyclopropyl-1-methyl-1H-imidazol-4-yl)-phenyl]-pyrimidin-4-ylamino}-ethyl)-7-fluoro-4-methoxy-1H-indole-2-carbonitrile] |
| 8.00 | 7.96 | COc1ccc(F)c2c1cc(C#N)n2CCNc1cc(-c2ccc(OCC(=O)O)c(OC(F)(F)F)c2)ncn1 [Example 828, (4-{6-[2-(2-Cyano-7-fluoro-4-methoxy-indol-1-yl)-ethylamino]-pyrimidin-4-yl}-2-trifluoromethoxy-phenoxy)-acetic acid] |
| 7.82 | 7.92 | COc1ccc(F)c2c1cc(C#N)n2CCNc1cc(-c2ccc(-c3cnc[nH]3)cc2)ncn1 [Example 829, 7-Fluoro-1-(2-{6-[4-(3H-imidazol-4-yl)-phenyl]-pyrimidin-4-ylamino}-ethyl)-4-methoxy-1H-indole-2-carbonitrile] |
| 8.52 | 7.92 | CCOc1cc(-c2cc(NCCn3c(C)cc4c(OC)ccc(F)c43)ncn2)ccc1-c1noc(=O)[nH]1 [Example 830, 3-(2-Ethoxy-4-{6-[2-(7-fluoro-4-methoxy-2-methyl-indol-1-yl)-ethylamino]-pyrimidin-4-yl}-phenyl)-[1,2,4]oxadiazol-5(4H)-one] |
| 7.72 | 7.77 | COc1ccc(F)c2c1cc(C#N)n2CCNc1cc(-c2ccc(-c3nc(=O)[nH]o3)cc2)ncn1 [Example 831, 7-Fluoro-1-(2-{6-[4-(3-oxo-2,3-dihydro-[1,2,4]-oxadiazol-5-yl)-phenyl]-pyrimidin-4-ylamino}-ethyl)-4-methoxy-1H-indole-2-carbonitrile] |
| 8.30 | 7.60 | COc1ccc(F)c2c1cc(C)n2CCNc1cc(-c2cc(OCC(F)(F)F)c(C(=O)O)s2)ncn1 [Example 832, 5-{6-[2-(7-Fluoro-4-methoxy-2-methyl-indol-1-yl)-ethylamino]-pyrimidin-4-yl}-3-(2,2,2-trifluoro-ethoxy)-thiophene-2-carboxylic acid] |
| 7.21 | 7.57 | CCCOc1cc(-c2cc(NCCn3c(C#N)cc4c(OC)ccc(F)c43)ncn2)ccc1CC(=O)O [Example 833, (4-{6-[2-(2-Cyano-7-fluoro-4-methoxy-indol-1-yl)-ethylamino]-pyrimidin-4-yl}-2-propoxy-phenyl)-acetic acid] |
| 7.82 | 7.55 | CCc1cc(-c2cc(NCCn3c(C#N)cc4c(OC)ccc(F)c43)ncn2)ccc1OCC(=O)O [Example 834, (4-{6-[2-(2-Cyano-7-fluoro-4-methoxy-indol-1-yl)-ethylamino]-pyrimidin-4-yl}-2-ethyl-phenoxy)-acetic acid] |
| 7.72 | 7.51 | CCOc1cc(-c2cc(NCCn3c(C)cc4c(C)cc(F)cc43)ncn2)ccc1-c1noc(=O)[nH]1 [Example 835, 3-(2-Ethoxy-4-{6-[2-(6-fluoro-2,4-dimethyl-indol-1-yl)-ethylamino]-pyrimidin-4-yl}-phenyl)-[1,2,4]oxadiazol-5(4H)-one] |

Second part, the molecule before the results:

| SMILES | pIC50 [1] | pIC50 [2] |
| --- | --- | --- |
| CCOc1cc(-c2cc(NCCn3c(C)cc4c(OC)ccc(F)c43)ncn2)ccc1OCC(=O)O [Example 810, (2-Ethoxy-4-{6-[2-(7-fluoro-4-methoxy-2-methyl-indol-1-yl)-ethylamino]-pyrimidin-4-yl}-phenoxy)-acetic acid] | 8.05 | 7.55 |
| CCOc1cc(-c2cc(NCCn3c(C)cc4c(OC)ccc(F)c43)ncn2)ccc1NCC(=O)O [Example 811, (2-Ethoxy-4-{6-[2-(7-fluoro-4-methoxy-2-methyl-indol-1-yl)-ethylamino]-pyrimidin-4-yl}-phenylamino)-acetic acid] | 8.52 | 7.70 |
| CCOc1cc(-c2cc(NCCn3c(C)cc4c(F)ccc(C)c43)ncn2)ccc1C(=O)O [Example 812, 2-Ethoxy-4-{6-[2-(4-fluoro-2,7-dimethyl-indol-1-yl)-ethylamino]-pyrimidin-4-yl}-benzoic acid] | 8.70 | 6.01 |
| CCOc1cc(-c2cc(NCCn3c(C#N)cc4c(OC)cccc43)ncn2)sc1C(=O)O [Example 813, 5-{6-[2-(2-Cyano-4-methoxy-indol-1-yl)-ethylamino]-pyrimidin-4-yl}-3-ethoxy-thiophene-2-carboxylic acid] | 8.70 | 8.52 |
| CCOc1cc(-c2cc(NCCn3c(C#N)cc4c(OC)ccc(F)c43)ncn2)sc1C(=O)NS(=O)(=O)c1ccccc1 [Example 814, N-(5-{6-[2-(2-Cyano-7-fluoro-4-methoxy-indol-1-yl)-ethylamino]-pyrimidin-4-yl}-3-ethoxy-thiophene-2-carbonyl)-benzenesulfonamide] | 8.15 | 8.70 |
| CCOc1cc(-c2cc(NCCn3c(C#N)cc4c(OC)ccc(F)c43)ncn2)sc1C(=O)NS(=O)(=O)C(C)C [Example 815, Propane-2-sulfonic acid (5-{6-[2-(2-cyano-7-fluoro-4-methoxy-indol-1-yl)-ethylamino]-pyrimidin-4-yl}-3-ethoxy-thiophene-2-carbonyl)-amide] | 8.10 | 8.15 |
| CCOc1cc(-c2cc(NCCn3c(C#N)cc4c(OC)ccc(F)c43)ncn2)sc1C(=O)NS(=O)(=O)CC [Example 817, Ethanesulfonic acid (5-{6-[2-(2-cyano-7-fluoro-4-methoxy-indol-1-yl)-ethylamino]-pyrimidin-4-yl}-3-ethoxy-thiophene-2-carbonyl)-amide] | 8.40 | 8.30 |
| COc1cc(-c2cc(NCCn3c(C#N)cc4c(OC)ccc(F)c43)ncn2)ccc1-c1c[nH]cn1 [Example 818, 7-Fluoro-1-(2-{6-[4-(1H-imidazol-4-yl)-3-methoxy-phenyl]-pyrimidin-4-ylamino}-ethyl)-4-methoxy-1H-indole-2-carbonitrile] | 8.70 | 9.00 |
| COc1ccc(F)c2c1cc(C#N)n2CCNc1cc(-c2ccc(-c3nc[nH]c3C)cc2)ncn1 [Example 819, 7-Fluoro-4-methoxy-1-(2-{6-[4-(5-methyl-1H-imidazol-4-yl)-phenyl]-pyrimidin-4-ylamino}-ethyl)-1H-indole-2-carbonitrile] | 8.15 | 8.70 |
| CCOc1cc(-c2cc(NCCn3c(C#N)cc4c(OC)ccc(F)c43)ncn2)ccc1-c1noc(=O)[nH]1 [Example 820] | 8.22 | 8.70 |
| COc1ccc(F)c2c1cc(C#N)n2CCNc1cc(-c2ccc(-c3nc(C)[nH]c3C)cc2)ncn1 [Example 821, 1-(2-{6-[4-(2,5-Dimethyl-1H-imidazol-4-yl)-phenyl]-pyrimidin-4-ylamino}-ethyl)-7-fluoro-4-methoxy-1H-indole-2-carbonitrile] | 8.40 | 8.70 |
| CCc1cc(-c2cc(NCCn3c(C#N)cc4c(OC)ccc(F)c43)ncn2)ccc1O [Example 822, 1-{2-[6-(3-Ethyl-4-hydroxy-phenyl)-pyrimidin-4-ylamino]-ethyl}-7-fluoro-4-methoxy-1H-indole-2-carbonitrile] | 8.22 | 8.30 |
| COc1ccc(F)c2c1cc(C#N)n2CCNc1cc(-c2ccc(-c3ncn(C)c3C)cc2)ncn1 [Example 823, 1-(2-{6-[4-(1,5-Dimethyl-1H-imidazol-4-yl)-phenyl]-pyrimidin-4-ylamino}-ethyl)-7-fluoro-4-methoxy-1H-indole-2-carbonitrile] | 8.30 | 8.30 |
| COc1ccc(F)c2c1cc(C#N)n2CCNc1cc(-c2ccc(-c3cn(C)c(C)n3)cc2)ncn1 [Example 824, 1-(2-{6-[4-(1,2-Dimethyl-1H-imidazol-4-yl)-phenyl]-pyrimidin-4-ylamino}-ethyl)-7-fluoro-4-methoxy-1H-indole-2-carbonitrile] | 8.10 | 8.15 |
| COc1ccc(F)c2c1cc(C#N)n2CCNc1cc(-c2ccc(-c3noc(=O)[nH]3)cc2)ncn1 [Example 825] | 7.85 | 8.10 |
| [2H]C([2H])(Nc1cc(-c2cc(Cl)c(C(=O)O)c(OCCCC)c2)ncn1)C([2H])([2H])n1c(C)cc2c(OC)ccc(F)c21 [Example 836, 2-butoxy-6-chloro-4-(6-((2-(7-fluoro-4-methoxy-2-methyl-1H-indol-1-yl)ethyl-1,1,2,2-d4)amino)pyrimidin-4-yl)benzoic acid] | 8.15 | 7.49 |
